Measured values published in ChEMBL document CHEMBL3352216, “Triterpene glycosides from red ginseng marc and their anti-inflammatory activities” (Bioorg Med Chem Lett, 2014).
Converted amounts (≈) assume the structure as drawn. The source made the active and inactive calls. The rule behind the calls is not given here.

Experiments:
[1] = system: RAW264.7; assay: Antiinflammatory activity in LPS-stimulated mouse RAW264.7 cells assessed as reduction in COX2 expression at 80 uM co-incubated with LPS for 24 hrs by RT-PCR method relative to untreated control; type: functional
[2] = system: RAW264.7; assay: Antiinflammatory activity in LPS-stimulated mouse RAW264.7 cells assessed as reduction in nitric oxide production at 120 uM after 24 hrs by Griess method based ELISA (reference value: 52.4 +/- 0.9 uM); type: functional
[3] = system: RAW264.7; assay: Antiinflammatory activity in LPS-stimulated mouse RAW264.7 cells assessed as reduction in IL6 expression at 40 uM co-incubated with LPS for 24 hrs by RT-PCR method relative to untreated control; type: functional
[4] = system: RAW264.7; assay: Antiinflammatory activity in LPS-stimulated mouse RAW264.7 cells assessed as reduction in IL-1beta expression at 80 uM co-incubated with LPS for 24 hrs by RT-PCR method relative to untreated control; type: functional
[5] = system: RAW264.7; assay: Antiinflammatory activity in LPS-stimulated mouse RAW264.7 cells assessed as reduction in IL-1beta expression at 120 uM co-incubated with LPS for 24 hrs by RT-PCR method relative to untreated control; type: functional
[6] = system: RAW264.7; assay: Antiinflammatory activity in LPS-stimulated mouse RAW264.7 cells assessed as reduction in COX2 expression at 40 uM co-incubated with LPS for 24 hrs by RT-PCR method relative to untreated control; type: functional
[7] = system: RAW264.7; assay: Induction of iNOS mRNA expression in LPS-non-stimulated mouse RAW264.7 cells by RT-PCR method; type: cell-based
[8] = system: RAW264.7; assay: Antiinflammatory activity in LPS-stimulated mouse RAW264.7 cells assessed as reduction in IL-1beta expression at 40 uM co-incubated with LPS for 24 hrs by RT-PCR method relative to untreated control; type: functional
[9] = Cytotoxicity against LPS-stimulated mouse RAW264.7 cells assessed as cell viability at 40 uM after 24 hrs by MTT assay (reference value: 100%); type: cell-based; settings: LPS-stimulated RAW264.7 cells, read-out: Activity
[10] = system: RAW264.7; assay: Antiinflammatory activity in LPS-stimulated mouse RAW264.7 cells assessed as reduction in nitric oxide production at 80 uM after 24 hrs by Griess method based ELISA (reference value: 52.4 +/- 0.9 uM); type: functional
[11] = system: RAW264.7; assay: Antiinflammatory activity in LPS-stimulated mouse RAW264.7 cells assessed as reduction in iNOS expression at 40 uM co-incubated with LPS for 24 hrs by RT-PCR method relative to untreated control; type: functional
[12] = system: RAW264.7; assay: Antiinflammatory activity in LPS-stimulated mouse RAW264.7 cells assessed as reduction in IL6 level at 40 uM co-incubated with LPS for 24 hrs by ELISA method; type: functional, cell-based
[13] = system: RAW264.7; assay: Antiinflammatory activity in LPS-stimulated mouse RAW264.7 cells assessed as reduction in nitric oxide production at 40 uM after 24 hrs by Griess method based ELISA (reference value: 52.4 +/- 0.9 uM); type: functional
[14] = system: RAW264.7; assay: Antiinflammatory activity in LPS-stimulated mouse RAW264.7 cells assessed as reduction in TNFalpha expression at 80 uM co-incubated with LPS for 24 hrs by RT-PCR method relative to untreated control; type: functional
[15] = system: RAW264.7; assay: Antiinflammatory activity in LPS-stimulated mouse RAW264.7 cells assessed as reduction in IL6 expression at 120 uM co-incubated with LPS for 24 hrs by RT-PCR method relative to untreated control; type: functional
[16] = system: RAW264.7; assay: Antiinflammatory activity in LPS-stimulated mouse RAW264.7 cells assessed as reduction in iNOS expression co-incubated with LPS for 24 hrs by RT-PCR method relative to untreated control; type: functional, cell-based
[17] = system: RAW264.7; assay: Antiinflammatory activity in LPS-stimulated mouse RAW264.7 cells assessed as reduction in IL6 expression at 80 uM co-incubated with LPS for 24 hrs by RT-PCR method relative to untreated control; type: functional
[18] = Cytotoxicity against LPS-stimulated mouse RAW264.7 cells assessed as cell viability at 80 uM after 24 hrs by MTT assay (reference value: 100%); type: cell-based; settings: LPS-stimulated RAW264.7 cells, read-out: Activity
[19] = system: RAW264.7; assay: Antiinflammatory activity in LPS-stimulated mouse RAW264.7 cells assessed as reduction in iNOS expression at 80 uM co-incubated with LPS for 24 hrs by RT-PCR method relative to untreated control; type: functional
[20] = system: RAW264.7; assay: Antiinflammatory activity in LPS-stimulated mouse RAW264.7 cells assessed as reduction in COX2 expression at 120 uM co-incubated with LPS for 24 hrs by RT-PCR method relative to untreated control; type: functional
[21] = system: RAW264.7; assay: Antiinflammatory activity in LPS-stimulated mouse RAW264.7 cells assessed as reduction in nitric oxide production after 24 hrs by Griess method based ELISA; type: functional, cell-based; settings: RAW264.7, 24 h
[22] = system: RAW264.7; assay: Antiinflammatory activity in LPS-stimulated mouse RAW264.7 cells assessed as reduction in TNFalpha expression at 120 uM co-incubated with LPS for 24 hrs by RT-PCR method relative to untreated control; type: functional
[23] = system: RAW264.7; assay: Antiinflammatory activity in LPS-stimulated mouse RAW264.7 cells assessed as reduction in TNFalpha expression at 40 uM co-incubated with LPS for 24 hrs by RT-PCR method relative to untreated control; type: functional
[24] = Cytotoxicity against LPS-stimulated mouse RAW264.7 cells assessed as cell viability at 120 uM after 24 hrs by MTT assay (reference value: 100%); type: cell-based; settings: LPS-stimulated RAW264.7 cells, read-out: Activity
[25] = system: RAW264.7; assay: Antiinflammatory activity in LPS-stimulated mouse RAW264.7 cells assessed as reduction in iNOS expression at 120 uM co-incubated with LPS for 24 hrs by RT-PCR method relative to untreated control; type: functional

CC(C)=CCC[C@@H](C)[C@H]1CC[C@@]2(C)[C@@H]3CC=C4C(C)(C)[C@@H](O[C@@H]5O[C@H](CO[C@@H]6O[C@H](CO[C@@H]7O[C@H](CO)[C@@H](O)[C@H](O)[C@H]7O)[C@@H](O)[C@H](O)[C@H]6O)[C@@H](O)[C@H](O)[C@H]5O)CC[C@]4(C)[C@H]3CC[C@]12C
fold change (FC) [1]: 0.8
Activity [2]: 19.8 µM
fold change (FC) [3]: 0.9
fold change (FC) [4]: 1.1
fold change (FC) [5]: 0.5
fold change (FC) [6]: 0.7
Activity [7]: Non-toxic
fold change (FC) [8]: 1
viability at 24 h, 40 µM [9]: 121%
Activity [10]: 27.5 µM
fold change (FC) [11]: 1
inhibition [12]: Active
Activity [13]: 40.9 µM
fold change (FC) [14]: 1
fold change (FC) [15]: 0.6
inhibition [16]: Dose-dependent effect
fold change (FC) [17]: 1
viability at 24 h, 80 µM [18]: 145%
fold change (FC) [19]: 1.1
fold change (FC) [20]: 0.4
IC50 [21]: 86.7 µg/mL (≈ 94.9 µM)
fold change (FC) [22]: 0.5
fold change (FC) [23]: 0.9
viability at 24 h, 120 µM [24]: 155%
fold change (FC) [25]: 0.6
